Data set [1] deals with Mycobacterium tuberculosis. Briefly: Antimycobacterial activity against Mycobacterium tuberculosis H37Rv assessed as reduction in bacterial growth preincubated for 72 hrs followed by phAE202 and Cacl2 addition and measured after 4 hrs by luciferase reporter mycobacterio-phage assay. Format: functional. The following applies: time 76 hrs.
Data set [2] relates to Mycobacterium tuberculosis. Briefly: Antimycobacterial activity against Mycobacterium tuberculosis H37Rv assessed as inhibition of bacterial growth at 100 ug/ml preincubated for 72 hrs followed by phAE202 and Cacl2 addition and measured after 4 hrs by luciferase reporter mycobacterio-phage assay. Format: functional. The note with it: time 76 hrs.
In data set [3] the test system is Mycobacterium tuberculosis. The data set can be described thus: Antimycobacterial activity against Mycobacterium tuberculosis H37Rv assessed as inhibition of bacterial growth at 50 ug/ml preincubated for 72 hrs followed by phAE202 and Cacl2 addition and measured after 4 hrs by luciferase reporter mycobacterio-phage assay. The following applies: time 76 hrs. Format: functional. A general note: A reporter such as luciferase makes a cellular process visible.

The nature of data set [4]: Cytotoxicity against human Mo7e cells assessed as cell viability at 10 to 50 ug/ml incubated for 24 hrs by WST-1 assay relative to control. Format: cell-based, M07E. The note with it: at 10 to 50 µg/mL, dose 10-50 µg/ml, read-out: Activity. A general note: Tetrazolium assays rely on reduction of a dye to a coloured formazan, in cell work by metabolically active cells.

The nature of data set [5]: Cytotoxicity against mouse BA/F3 cells assessed as cell viability at 10 to 50 ug/ml incubated for 24 hrs by WST-1 assay relative to control. Format: cell-based, BaF3. The following applies: at 10 to 50 µg/mL, dose 10-50 µg/ml, read-out: Activity.

Values after ≈ are worked out from the molar mass of the structure shown. Where only a bound is given, the exact number is not on record here.

This note sets out measurements from ChEMBL document CHEMBL4680256, “Indole chalcones: Design, synthesis, in vitro and in silico evaluation against Mycobacterium tuberculosis” (Eur J Med Chem, 2020).

As to `O=C(/C=C/c1c[nH]c2ccccc12)c1ccc(F)cc1`, the MIC in data set [1] was 188 µM (≈ 49.9 µg/mL). Moreover, the inhibition – broadly, the percentage by which the read-out fell short of the control – at 100 µg/mL in data set [2] was 54.2%. For the same molecule, the inhibition at 50 µg/mL in data set [3] was 50.3%.

With `COc1ccc(C(=O)/C=C/c2c[nH]c3ccccc23)cc1OC`, the MIC in data set [1] was over 325 µM. In addition, the inhibition at 100 µg/mL in data set [2] was 31.7%. For the same molecule, in data set [3], the inhibition at 50 µg/mL stood at 27.1%.

As for `O=C(/C=C/c1c[nH]c2ccccc12)c1ccc2c(c1)OCO2`, in data set [1], the MIC was 171 µM (≈ 49.8 µg/mL). Moreover, the inhibition at 100 µg/mL in data set [2] came to 75.7%. Besides, the inhibition at 50 µg/mL in data set [3] was determined as 66.8%.

For the molecule `O=C(/C=C/c1c[nH]c2ccccc12)c1ccccn1`, the MIC in data set [1] was 201 µM (≈ 49.9 µg/mL). For the same molecule, the inhibition at 100 µg/mL in data set [2] was determined as 62%. Also, the inhibition at 50 µg/mL in data set [3] is 53.1%.

Turning to `O=C(/C=C/c1c[nH]c2ccccc12)c1ccc(O)cc1`, the MIC in data set [1] came to 189 µM (≈ 49.8 µg/mL). Moreover, in data set [2], the inhibition at 100 µg/mL came to 55.1%. Further, the inhibition at 50 µg/mL in data set [3] was found to be 54.9%.

For `Cc1ccc(C(=O)/C=C/c2c[nH]c3ccccc23)cc1`, the MIC in data set [1] was over 382 µM. In data set [2], the inhibition at 100 µg/mL is 50.9%. The inhibition at 50 µg/mL in data set [3] amounted to 41.7%.

Take `O=C(/C=C/c1c[nH]c2ccccc12)c1cccnc1`: the MIC in data set [1] was found to be 201 µM (≈ 49.9 µg/mL). The inhibition at 100 µg/mL in data set [2] came to 70.7%. Moreover, the inhibition at 50 µg/mL in data set [3] is 63.1%.

Take `O=C(/C=C/c1c[nH]c2ccccc12)c1ccncc1`: the MIC in data set [1] turned out to be 201 µM (≈ 49.9 µg/mL). Also, the inhibition at 100 µg/mL in data set [2] amounted to 64.2%. Besides, the inhibition at 50 µg/mL in data set [3] came to 58.4%.

With `O=C(/C=C/c1c[nH]c2ccccc12)c1ccc(Cl)cc1`, in data set [1], the MIC was over 355 µM. Moreover, the inhibition at 100 µg/mL in data set [2] worked out at 50.6%. The inhibition at 50 µg/mL in data set [3] is 48.6%.

`O=C(/C=C/c1c[nH]c2ccccc12)c1ccc2ccccc2c1`: the MIC in data set [1] was over 336 µM. Further, the inhibition at 100 µg/mL in data set [2] stood at 41.8%. Also, in data set [3], the inhibition at 50 µg/mL was determined as 30.8%.

For `O=C(/C=C/c1c[nH]c2ccccc12)c1ccc(-c2ccoc2)cc1`, in data set [1], the MIC stood at 210 µM (≈ 65.8 µg/mL). The inhibition at 100 µg/mL in data set [2] is 87.7%. In data set [3], the inhibition at 50 µg/mL worked out at 85.3%. For the same molecule, the viability at 24 h in data set [4] is over 80%; in data set [5], over 60%.

`O=C1CCC/C1=C\c1cc2ccccc2[nH]1`: the MIC in data set [1] was 236 µM (≈ 49.9 µg/mL). Moreover, the inhibition at 100 µg/mL in data set [2] was determined as 86.3%. Also, the inhibition at 50 µg/mL in data set [3] came to 84.3%. Moreover, the viability at 24 h in data set [4] is over 80%; in data set [5] it was over 60%.

As to `O=C(/C=C/c1c[nH]c2ccccc12)c1cccc([N+](=O)[O-])c1`, the MIC in data set [1] was over 342 µM. The inhibition at 100 µg/mL in data set [2] was found to be 51.7%. The inhibition at 50 µg/mL in data set [3] came out at 48.7%.

`O=C(/C=C/c1c[nH]c2ccccc12)c1ccc(-n2ccnc2)cc1`: the MIC in data set [1] worked out at 159 µM (≈ 49.8 µg/mL). In data set [2], the inhibition at 100 µg/mL stood at 70.7%. Besides, the inhibition at 50 µg/mL in data set [3] was found to be 63.6%.

In the case of `O=C1CCCC/C1=C\c1cc2ccccc2[nH]1`, the MIC in data set [1] was 221 µM (≈ 49.8 µg/mL). In data set [2], the inhibition at 100 µg/mL came out at 62%. For the same molecule, the inhibition at 50 µg/mL in data set [3] is 53.1%.

Consider `O=C(/C=C/c1c[nH]c2ccccc12)c1ccc(Br)cc1`, for which, in data set [1], the MIC came out at 155 µM (≈ 50.6 µg/mL). Further, in data set [2], the inhibition at 100 µg/mL is 65.9%. Further, in data set [3], the inhibition at 50 µg/mL amounted to 64.9%.

With `COc1cccc(C(=O)/C=C/c2c[nH]c3ccccc23)c1`, in data set [1], the MIC is over 360 µM. Further, the inhibition at 100 µg/mL in data set [2] is 36.7%. In data set [3], the inhibition at 50 µg/mL is 27.1%.

As to `O=C(/C=C/c1c[nH]c2ccccc12)c1ccc(Cl)cc1Cl`, the MIC in data set [1] was found to be 164 µM (≈ 51.9 µg/mL). Further, the inhibition at 100 µg/mL in data set [2] came out at 55.2%. For the same molecule, the inhibition at 50 µg/mL in data set [3] is 52.3%.

On to `O=C(/C=C/c1c[nH]c2ccccc12)c1ccc(-c2ccsc2)cc1`, for which the MIC in data set [1] amounted to 197 µM (≈ 64.9 µg/mL). In addition, in data set [2], the inhibition at 100 µg/mL was found to be 63.4%. Further, the inhibition at 50 µg/mL in data set [3] came to 62%.

With `O=C(/C=C/c1c[nH]c2ccccc12)c1cccc(C(F)(F)F)c1`, the MIC in data set [1] was over 317 µM. Moreover, in data set [2], the inhibition at 100 µg/mL was determined as 26.3%. The inhibition at 50 µg/mL in data set [3] was determined as 24.5%.

As to `O=C(/C=C/c1c[nH]c2ccccc12)N1CCN(c2ccc(O)cc2)CC1`, in data set [1], the MIC was 143 µM (≈ 49.7 µg/mL). For the same molecule, the inhibition at 100 µg/mL in data set [2] is 76.4%. For the same molecule, the inhibition at 50 µg/mL in data set [3] was found to be 63.8%.

For the molecule `O=C(/C=C/c1c[nH]c2ccccc12)c1ccc(-c2cccs2)cc1`, the MIC in data set [1] is 197 µM (≈ 64.9 µg/mL). Also, the inhibition at 100 µg/mL in data set [2] turned out to be 87.2%. Also, the inhibition at 50 µg/mL in data set [3] was 82%. Moreover, the viability at 24 h in data set [4] was over 80%; in data set [5], over 60%.

With `O=C(/C=C/c1c[nH]c2ccccc12)c1ccc(C(F)(F)F)cc1`, the MIC in data set [1] was over 317 µM. Moreover, the inhibition at 100 µg/mL in data set [2] turned out to be 31.2%. In addition, the inhibition at 50 µg/mL in data set [3] is 29.7%.

In the case of `Nc1cccc(C(=O)/C=C/c2c[nH]c3ccccc23)c1`, in data set [1], the MIC was over 381 µM. In addition, the inhibition at 100 µg/mL in data set [2] was determined as 48.7%. The inhibition at 50 µg/mL in data set [3] was 37.2%.

On to `O=C(/C=C/c1c[nH]c2ccccc12)c1ccc(-c2ccc[nH]2)cc1`, for which the MIC in data set [1] is over 423 µM. Also, the inhibition at 100 µg/mL in data set [2] was 49.4%. Moreover, in data set [3], the inhibition at 50 µg/mL worked out at 26.4%.

With `NNC(=O)c1ccncc1` [ISONIAZID], the MIC in data set [1] is 1.4 µM (≈ 0.192 µg/mL). For the same molecule, the inhibition at 100 µg/mL in data set [2] is over 99%.

Turning to `CO[C@H]1/C=C/O[C@@]2(C)Oc3c(C)c(O)c4c(O)c(c(/C=N/N5CCN(C)CC5)c(O)c4c3C2=O)NC(=O)/C(C)=C\C=C\[C@H](C)[C@H](O)[C@@H](C)[C@@H](O)[C@@H](C)[C@H](OC(C)=O)[C@@H]1C` [RIFAMPIN], the MIC in data set [1] turned out to be 2.4 µM (≈ 1.98 µg/mL). Moreover, the inhibition at 100 µg/mL in data set [2] was over 99%.
